Data set [1] relates to CCF-STTG1 cells. As to the kind of experiment: CCK-8 viability assay in CCF-STTG1. The note with it: for concentration with highly significant cytotoxic effects / IC50: CCF-STTG1, 48 h; for IC50: Homo sapiens, CCK-8, read-out: IC50 (cellular viability). The class given is cell-based, human. Here is the method:
(§1) To test the viability and to define the working range for later transport studies ENN B/ENN B1 stock solutions in ACN were diluted to the respective concentrations with serum free culture medium (1% ACN). An astrocytoma cell line, CCF-STTG1 (ATCC, Manassas, USA), and HBMEC cell line (human brain microvascular endothelial cells, kindly provided by Prof. Dr. Karch, Institute of Hygiene, University of Muenster (WWU Muenster)) were cultivated in RPMI 1640 medium supplemented with 100 U/mL penicillin, 100 μg/mL streptomycin, 2 mM L-glutamine and 10% (v/v) fetal calf serum (FCS) (medium for HBMEC additionally supplemented with 1 mM Na-pyruvate) using standardized culture conditions (37°C, 5% CO2, saturated humidified atmosphere). Culture medium was changed every 2–3 d, and the cells were subcultivated after trypsination when they reached a microscopic confluence of approximately 80%. For the evaluation of cytotoxic effects of ENN B and B1 in CCF-STTG1 and HBMEC, Cell Counting Kit-8 (CCK-8, Dojindo Laboratories, Tokyo Japan) was applied. The assay was performed according to the manufacturer’s instructions with slight modifications.
Briefly, the cells were seeded in 96-well tissue culture plates in a density of 1 × 10^4 cells/well (CCF-STTG1) and 4 × 10^3 cells/well (HBMEC), respectively. The cells were allowed to grow for 24 h, then the culture medium was replaced by serum free medium (100 μL/well), and the cells were cultivated for another 24 h (37°C, 5% CO2, saturated humidified atmosphere) before treatment. The cells were treated with ENN B and ENN B1 in a concentration range from 0.1 μM to 10 μM and were incubated for 48 h. After toxin exposure, the toxin solution was exchanged with a dye solution WST-8 (CCK-8 solution, water soluble tetrazolium salt-8, 2-(2-methoxy-4-nitrophenyl)-3-)4-nitrophenyl)-5-(2,4-disulfophenyl)-2H-tetrazolium monosodium salt), 1:10 diluted with fresh serum free medium, which was added to the cells followed by incubation for 60 min at 37°C. WST-8 dye is reduced to a water-soluble formazan by cellular dehydrogenases of viable cells, which increases the absorbance at λ = 457 nm and was measured with an Infinite M200 PRO microplate reader with Tecan i-control software version 1.7.1.12 (Tecan, Crailsheim, Germany). The amount of formazan generated by the activity of dehydrogenases in cells is directly proportional to the number of viable cells per well. The results are normalized to a solvent treated negative control (1% ACN).
In general terms: Tetrazolium dyes change colour on reduction, which living cells bring about.

In data set [2] the test system is HBMEC. As to the kind of experiment: CCK-8 viability assay in HBMEC. The class given is cell-based, human. Particulars: 0.1 μM to 10 μM, 48 h. Here is the method:
as §1, with “For the evaluation of cytotoxic effects of ENN B and B1 in CCF-STTG1 and HBMEC, Cell Counting Kit-8 (CCK-8, Dojindo Laboratories, Tokyo Japan) was applied. The assay was performed according to the manufacturer’s instructions with slight modifications.” left out
Briefly, the cells were seeded in 96-well tissue culture plates in a density of 1 × 10^4 cells/well (CCF-STTG1) and 4 × 10^3 cells/well (HBMEC), respectively. […] WST-8 dye is reduced to a water-soluble formazan by cellular dehydrogenases of viable cells, which increases the absorbance at λ = 457 nm and was measured with an Infinite M200 PRO microplate reader with Tecan i-control software version 1.7.1.12 (Tecan, Crailsheim, Germany). […]

The nature of data set [3]: CCK-8 viability assay in PBCEC. The note with it: pig, primary porcine brain capillary endothelial cells (PBCEC). The class given is cell-based, porcine. Here is the method: (§2) Primary porcine brain capillary endothelial cells (PBCEC) were kindly provided by the group of Prof. Dr. Langer, Institute of Pharmaceutical Technology, WWU Münster. Cellular viability was tested after treatment for 48 h using the CCK-8 assay, like applied for the cell lines but with minor modifications. Based on earlier protocols for the cultivation of PBCEC, the cryopreserved PBCEC were thawed at 37°C in a water bath, gently resuspended in culture medium (Medium 199 Earle’s with 100 U/mL penicillin, 100 μg/mL streptomycin, 100 μg/mL gentamycin, 4.1 mM L-glutamine and 10% fetal calf serum) and centrifugated at 220 × g at 20°C for 10 min. After removal of the supernatant, fresh complete medium was added and the cell pellet was resuspended twice and diluted to desired cell density. The cells were seeded on rat tail collagen coated 96-well tissue culture plates with 100 μL of the cell suspension per well. PBCEC were allowed to grow for 48 h at 37°C, 5% CO2 under saturated humidified conditions. Complete medium was exchanged for serum free medium (DMEM/Ham’s F-12 1:1 with 100 U/mL penicillin, 100 μg/mL streptomycin, 100 μg/mL gentamycin, 0.7 mM L-glutamine and 550 nM hydrocortisone (Sigma-Aldrich, Steinheim, Germany)). On day 5 in culture (96 h after seeding) half of the medium (50 μL) was removed and exchanged with 50 μL double concentrated ENN solution to reach the desired final concentrations in a concentration range from 0.1 μM to 10 μM. The cells were treated with the test substances in concentrations from 0.1 to 10 μM for 48 h. Due to the sensitivity of the primary cells, after completion of 48 h, the incubation medium was not exchanged but each well was supplemented with 10 μL of the CCK-8 solution and incubated for 70 min at 37°C, 5% CO2 in a saturated humidified atmosphere. Then the absorbance of the generated formazan dye was measured at 457 nm with 650 nm as reference wavelength. After subtracting the reference absorption as well as a blank absorption without cells, the viabilities were normalized to a solvent treated negative control (1% ACN).

The test system of data set [4] is PBCEC. As to the kind of experiment: CCK-8 viability assay in PBCEC. Particulars: 48 h; for cytotoxic effects: 1 μM. The class given is cell-based, porcine. The protocol:
as §2

A short description of data set [5]: Pig feeding study, plasma concentration. Particulars: worst case contamination 5.8 mg/kg ENN B, 18.3 mg/kg ENN B1. The class given is in vivo.
In data set [6] the test system is Caco-2. Particulars: cited from earlier work; for absorption: Caco-2, 4 h exposure; for duodenal bioavailability in vitro: Caco-2 model, 48 h.
Details of data set [7]: method as in PMID 23598119. Particulars: oral intake 0.05 mg/kg b.w.; cited from earlier work.
Data set [8] has as its system HT-29. Details: method as in PMID 21640785. Particulars: HT-29, 48 h; cited from earlier work.
The subject of data set [9] is HepG2. Details: method as in PMID 21640785. The note with it: cited from earlier work.
Data set [10] relates to MRC-5 cells. Details: method as in PMID 16730043. Particulars: MRC-5, 24 h, Alamar Blue; cited from earlier work. For orientation: The colour change of resazurin is a common sign of viable cells or microbes.
Data set [11] has as its system HepG2 cells. Further details: method as in PMID 16730043. Particulars: HepG2, 24 h, Alamar Blue; cited from earlier work.

Values joined by “and” are separate entries in the source; they are usually repeats but may differ in a detail not shown here. Equal values may be shown once. Read-outs that look alike come from different tables or passages of the source. Some results are limits rather than exact numbers.

For the compound `CC[C@H](C)[C@H]1C(=O)O[C@H](C(C)C)C(=O)N(C)[C@@H](C(C)C)C(=O)O[C@H](C(C)C)C(=O)N(C)[C@@H](C(C)C)C(=O)O[C@H](C(C)C)C(=O)N1C` [ENN B1, enniatin B1], in [1] (CCF-STTG1, 0.1 μM and 1 μM, 48 h), the effect on viability entry is recorded as “weak but significant effects”. Further, the “concentration with highly significant cytotoxic effects” value in data set [1] was no less than 2500 nM. The IC50 in data set [1] was 4.4 µM; in data set [8], 3.7 µM; in data set [9] (read-out: IC50), 8.5 µM; in [10], 4.7 µM; in data set [11], 36 µM. Further, the “effect on viability compared to solvent control” value in [2] is reported as “no effect on viability”. The viability at 48 h, 10 µM in data set [3] (10 μM, read-out: relative viability) worked out at 64%. In addition, the cytotoxic effects result in data set [4] was “did not show any cytotoxic effects”. Further, the “concentration with highly significant cytotoxicity” value in [4] is no less than 2500 nM. In addition, in data set [5], the theoretical plasma levels is 0.641 μg/mL and 0.980 μM. In addition, in data set [6], the absorption is greater than 65%. Further, in data set [6], the “duodenal bioavailability in vitro” value is on record as greater than 50%. In [7], the “concentration in pig plasma” value was 0.035 μg/mL and 0.054 μM.
For the compound `CC(C)[C@H]1C(=O)O[C@H](C(C)C)C(=O)N(C)[C@@H](C(C)C)C(=O)O[C@H](C(C)C)C(=O)N(C)[C@@H](C(C)C)C(=O)O[C@H](C(C)C)C(=O)N1C` [ENN B, enniatin B], the “concentration with highly significant cytotoxic effects” value in data set [1] was no less than 5000 nM. Moreover, the IC50 in [1] was 8.9 µM; in data set [8], 2.8 µM; in [9], “no IC50 could be calculated”; in data set [10], 9.8 µM; in data set [11] it was 436 µM. Also, the “effect on viability compared to solvent control” value in data set [2] is listed as “no effect on viability”. For the same compound, the viability at 48 h in data set [3] (concentrations above 5 μM, read-out: cellular viability, minimum) was found to be 70%. For the same compound, the cytotoxic effects result in data set [4] is “did not show any cytotoxic effects”. Besides, the “concentration with highly significant cytotoxicity” value in data set [4] is reported as “above 5 μM”. The theoretical plasma levels in data set [5] is 0.423 μg/mL and 0.662 μM. The absorption in data set [6] is reported as greater than 65%. The “duodenal bioavailability in vitro” value in data set [6] was greater than 50%. Further, in data set [7], the “concentration in pig plasma” value was 0.073 μg/mL and 0.114 μM.

A word on the IC50: it is the point on the concentration scale where inhibition reaches its midpoint. Usually viability stands for a read-out of living cells in per cent, often relative to untreated cells.
